# Data published in article PMC6980656 (Cell chemical biology, 2019).
# Columns and labels:
# Wee1 [1] = molecular target: T1, Wee1 (Homo sapiens, UniProt P30291); test: Immunoblot of Wee1 degradation in parental MOLT4 cells; format: cell-based
# [2] = tested on: MCF10A non-transformed mammary epithelial cell line; test: Image-based cell cycle assay in MCF10A
# MOLT4 cells [3] = test: Cell cycle analysis by propidium iodide staining, parental MOLT4; format: cell-based; details: PI staining; for effect on cell cycle (G2/M proportion): 100 nM
# [4] = tested on: phosphorylation of CDK1 at Tyr15 (pCDK1 Y15); test: Immunoblot of pCDK1 Y15 in parental MOLT4 cells; format: cell-based
# MOLT4 cells [5] = test: CellTiter-Glo cell viability, parental MOLT4; format: cell-based; details: for IC50: Homo sapiens, MOLT-4, 72 h, read-out: IC50, antiproliferative activity
# [6] = tested on: pCDK1 Y15, PARP cleavage, γH2Ax; test: Immunoblot of downstream markers; format: cell-based; details: MOLT4 cells; for downstream changes (pCDK1 Y15, PARP cleavage, γH2Ax): 100 nM
# PLK1 [7] = molecular target: T2, PLK1 (Homo sapiens, UniProt P53350); test: KINOMEscan profiling; format: binding; details: 1 μM
# Wee1 [8] = molecular target: T1, Wee1; test: KINOMEscan profiling; format: binding; details: 1 μM
# OVCAR8 cells = test: Synergy co-treatment, CellTiter-Glo in OVCAR8 cells; format: cell-based; details: for synergy with Olaparib: 72 hr co-treatment
# [9] = tested on: 300 suspension and hematopoietic cancer cell lines; test: PRISM pooled cytotoxicity assay; format: cell-based
# Ikaros (IKZF1) = Ikaros (IKZF1) (Homo sapiens, UniProt Q13422+Q96SW2); test: IKZF1 degradation, proteomics/immunoblotting; format: cell-based
# ZFP91 = ZFP91 (Homo sapiens, UniProt Q96JP5+Q96SW2); test: ZFP91 abundance by proteomics in MOLT4 cells; format: cell-based; details: 100 nM, 2 hrs
# Wee1 [10] = molecular target: T1, Wee1; test: Immunoblot of Wee1 degradation in CRBN−/− MOLT4 cells; format: cell-based; details: 5 hrs
# [11] = tested on: BT549, HCC1806, COV362, Kuramochi, OVCAR8 cell lines; test: Image-based cell cycle assay in TNBC and ovarian cancer cell lines
# [12] = tested on: phosphorylation of CDK1 at Tyr15 (pCDK1 Y15); test: Immunoblot of pCDK1 Y15 in CRBN−/− MOLT4 cells; format: cell-based; details: 5 hrs
# CRBN−/− MOLT4 cells = test: Cell cycle analysis by propidium iodide staining, CRBN−/− MOLT4; format: cell-based; details: 100 nM, 24 hrs
# Aiolos (IKZF3) = Aiolos (IKZF3) (Homo sapiens, UniProt Q96SW2+Q9UKT9); test: IKZF3 degradation, proteomics/immunoblotting; format: cell-based
# Wee1 [13] = molecular target: T1, Wee1; test: Wee1 degradation in OVCAR8 cells; format: cell-based
# Wee1 [14] = molecular target: T1, Wee1; test: LanthaScreen FRET-based assay; format: binding; details: for engagement of recombinant Wee1: LanthaScreen, Table S1
# MOLT4 CRBN−/− cells = test: CellTiter-Glo cell viability, CRBN−/− MOLT4; format: cell-based; details: 72 hrs
# PLK1 [15] = molecular target: T2, PLK1; test: PLK1 abundance by proteomics and immunoblot in MOLT4 cells; format: cell-based; details: proteomics (100 nM, 2 hrs) or immunoblot
# [16] = tested on: OVCAR8, COV283, and Kuramochi ovarian cancer cell lines; test: Viability in ovarian cancer cell line panel; format: cell-based
# [17] = tested on: OCE1 non-malignant ovarian line; test: Viability in non-malignant ovarian line; format: cell-based
# [18] = 24 hr treatment, immunoblotting
# [19] = MOLT4 cells, 2 hrs pretreatment then 5 hrs co-treatment
# T1 sequence (P30291 whole entry): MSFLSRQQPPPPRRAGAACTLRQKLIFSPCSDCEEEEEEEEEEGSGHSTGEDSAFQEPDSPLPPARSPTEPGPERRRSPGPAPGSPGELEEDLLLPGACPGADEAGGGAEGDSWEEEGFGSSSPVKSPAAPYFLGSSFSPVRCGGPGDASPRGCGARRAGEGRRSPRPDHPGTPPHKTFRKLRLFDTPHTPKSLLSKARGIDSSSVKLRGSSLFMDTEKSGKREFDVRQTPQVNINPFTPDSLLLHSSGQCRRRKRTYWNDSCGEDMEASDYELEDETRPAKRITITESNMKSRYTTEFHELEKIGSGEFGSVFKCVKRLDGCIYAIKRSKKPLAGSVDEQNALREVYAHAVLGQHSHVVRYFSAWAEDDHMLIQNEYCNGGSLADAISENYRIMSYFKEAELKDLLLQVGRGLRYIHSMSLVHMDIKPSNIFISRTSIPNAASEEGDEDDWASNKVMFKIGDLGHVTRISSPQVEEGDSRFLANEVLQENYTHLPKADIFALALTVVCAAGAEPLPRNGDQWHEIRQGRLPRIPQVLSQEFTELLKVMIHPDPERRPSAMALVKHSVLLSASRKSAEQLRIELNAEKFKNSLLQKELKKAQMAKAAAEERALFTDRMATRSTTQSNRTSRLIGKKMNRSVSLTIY
# T2 sequence (P53350 whole entry): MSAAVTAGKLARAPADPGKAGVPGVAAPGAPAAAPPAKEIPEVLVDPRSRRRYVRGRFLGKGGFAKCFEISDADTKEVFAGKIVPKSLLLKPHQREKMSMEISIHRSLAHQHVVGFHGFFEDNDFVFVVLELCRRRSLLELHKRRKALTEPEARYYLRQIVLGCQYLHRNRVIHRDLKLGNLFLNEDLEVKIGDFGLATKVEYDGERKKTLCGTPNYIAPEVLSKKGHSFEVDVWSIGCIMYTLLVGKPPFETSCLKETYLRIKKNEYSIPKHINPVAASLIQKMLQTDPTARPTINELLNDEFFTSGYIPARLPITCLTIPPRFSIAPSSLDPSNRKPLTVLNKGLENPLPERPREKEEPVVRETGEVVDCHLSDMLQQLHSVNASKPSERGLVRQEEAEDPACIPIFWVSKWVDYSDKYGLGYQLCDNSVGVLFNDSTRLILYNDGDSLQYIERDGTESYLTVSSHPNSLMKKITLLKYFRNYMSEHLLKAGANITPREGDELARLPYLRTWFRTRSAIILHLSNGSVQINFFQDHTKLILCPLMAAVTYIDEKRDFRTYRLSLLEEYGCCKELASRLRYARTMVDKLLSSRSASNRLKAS
# Chain of Ikaros (IKZF1) (Q13422 whole entry): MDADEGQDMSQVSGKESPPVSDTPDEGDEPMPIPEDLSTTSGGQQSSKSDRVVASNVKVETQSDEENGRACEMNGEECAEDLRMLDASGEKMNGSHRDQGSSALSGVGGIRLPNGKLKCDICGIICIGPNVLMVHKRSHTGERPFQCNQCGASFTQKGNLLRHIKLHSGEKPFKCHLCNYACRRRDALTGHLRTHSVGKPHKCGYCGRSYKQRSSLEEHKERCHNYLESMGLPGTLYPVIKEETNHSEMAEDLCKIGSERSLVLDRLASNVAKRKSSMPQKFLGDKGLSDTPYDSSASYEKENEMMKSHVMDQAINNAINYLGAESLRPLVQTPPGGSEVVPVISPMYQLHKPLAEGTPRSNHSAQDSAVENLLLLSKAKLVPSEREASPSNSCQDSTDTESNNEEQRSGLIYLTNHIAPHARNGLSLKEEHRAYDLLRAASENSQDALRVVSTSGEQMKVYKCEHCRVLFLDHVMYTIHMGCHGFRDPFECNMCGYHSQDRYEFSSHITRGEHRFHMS
# Chain of Ikaros (IKZF1) (Q96SW2 whole entry): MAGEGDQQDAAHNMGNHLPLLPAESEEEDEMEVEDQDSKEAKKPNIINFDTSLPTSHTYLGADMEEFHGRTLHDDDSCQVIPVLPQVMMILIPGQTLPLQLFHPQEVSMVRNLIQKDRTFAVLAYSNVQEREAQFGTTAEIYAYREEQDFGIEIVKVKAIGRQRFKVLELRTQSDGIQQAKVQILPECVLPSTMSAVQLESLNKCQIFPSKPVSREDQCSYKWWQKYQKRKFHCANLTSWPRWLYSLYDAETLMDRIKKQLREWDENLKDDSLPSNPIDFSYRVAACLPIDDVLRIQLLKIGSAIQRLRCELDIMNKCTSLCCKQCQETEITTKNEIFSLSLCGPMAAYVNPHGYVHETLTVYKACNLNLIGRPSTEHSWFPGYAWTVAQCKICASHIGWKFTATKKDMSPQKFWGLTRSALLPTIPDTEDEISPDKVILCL
# Chain of Ikaros (IKZF1) (Q16531 whole entry partner): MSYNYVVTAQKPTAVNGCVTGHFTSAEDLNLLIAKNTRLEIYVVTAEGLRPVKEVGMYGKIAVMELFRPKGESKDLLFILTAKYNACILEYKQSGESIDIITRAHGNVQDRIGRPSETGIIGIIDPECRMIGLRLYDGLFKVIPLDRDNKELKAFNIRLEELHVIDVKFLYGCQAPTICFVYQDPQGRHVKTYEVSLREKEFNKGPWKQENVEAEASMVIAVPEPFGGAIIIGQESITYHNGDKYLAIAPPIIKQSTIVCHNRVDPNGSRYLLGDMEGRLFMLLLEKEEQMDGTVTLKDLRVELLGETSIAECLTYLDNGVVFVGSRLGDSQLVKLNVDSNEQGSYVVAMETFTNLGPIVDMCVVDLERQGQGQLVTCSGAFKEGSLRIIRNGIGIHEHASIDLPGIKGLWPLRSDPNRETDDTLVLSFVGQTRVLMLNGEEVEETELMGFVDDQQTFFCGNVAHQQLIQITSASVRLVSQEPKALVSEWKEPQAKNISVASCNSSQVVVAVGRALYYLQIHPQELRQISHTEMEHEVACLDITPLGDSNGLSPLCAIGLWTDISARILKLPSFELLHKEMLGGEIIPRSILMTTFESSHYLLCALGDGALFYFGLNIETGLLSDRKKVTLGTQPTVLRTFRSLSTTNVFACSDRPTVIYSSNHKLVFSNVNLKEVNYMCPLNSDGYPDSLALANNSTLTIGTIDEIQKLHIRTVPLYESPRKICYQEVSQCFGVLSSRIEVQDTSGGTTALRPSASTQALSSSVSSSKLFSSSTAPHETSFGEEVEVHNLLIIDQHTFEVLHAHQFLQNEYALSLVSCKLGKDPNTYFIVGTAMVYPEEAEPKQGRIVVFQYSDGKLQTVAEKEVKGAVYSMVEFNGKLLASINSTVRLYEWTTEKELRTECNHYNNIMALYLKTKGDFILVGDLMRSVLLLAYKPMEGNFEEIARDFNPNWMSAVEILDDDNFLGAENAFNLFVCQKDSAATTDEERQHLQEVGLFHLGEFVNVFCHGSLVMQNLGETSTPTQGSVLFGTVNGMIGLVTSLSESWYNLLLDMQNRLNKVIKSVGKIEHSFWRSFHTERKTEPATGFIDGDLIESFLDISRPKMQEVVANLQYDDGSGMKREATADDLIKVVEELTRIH
# Chain of Aiolos (IKZF3) (Q9UKT9 whole entry): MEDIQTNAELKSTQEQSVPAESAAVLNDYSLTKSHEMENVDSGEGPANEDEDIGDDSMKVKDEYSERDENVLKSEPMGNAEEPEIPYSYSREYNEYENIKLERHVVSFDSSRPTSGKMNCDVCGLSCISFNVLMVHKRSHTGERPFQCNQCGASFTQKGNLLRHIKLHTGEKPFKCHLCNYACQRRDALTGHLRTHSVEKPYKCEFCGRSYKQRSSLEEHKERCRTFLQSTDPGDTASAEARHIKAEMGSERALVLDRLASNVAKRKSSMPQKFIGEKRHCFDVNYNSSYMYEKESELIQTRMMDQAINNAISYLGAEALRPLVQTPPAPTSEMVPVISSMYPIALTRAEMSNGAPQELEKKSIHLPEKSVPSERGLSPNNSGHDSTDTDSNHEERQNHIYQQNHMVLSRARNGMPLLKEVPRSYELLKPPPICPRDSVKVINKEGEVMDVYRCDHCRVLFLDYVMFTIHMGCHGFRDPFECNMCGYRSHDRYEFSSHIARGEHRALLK
# Chain of Aiolos (IKZF3) (Q96SW2 whole entry): as the sequence (Q96SW2 whole entry) above
# Chain of Aiolos (IKZF3) (Q16531 whole entry partner): as the sequence (Q16531 whole entry partner) above
# Chain of ZFP91 (Q96JP5 whole entry): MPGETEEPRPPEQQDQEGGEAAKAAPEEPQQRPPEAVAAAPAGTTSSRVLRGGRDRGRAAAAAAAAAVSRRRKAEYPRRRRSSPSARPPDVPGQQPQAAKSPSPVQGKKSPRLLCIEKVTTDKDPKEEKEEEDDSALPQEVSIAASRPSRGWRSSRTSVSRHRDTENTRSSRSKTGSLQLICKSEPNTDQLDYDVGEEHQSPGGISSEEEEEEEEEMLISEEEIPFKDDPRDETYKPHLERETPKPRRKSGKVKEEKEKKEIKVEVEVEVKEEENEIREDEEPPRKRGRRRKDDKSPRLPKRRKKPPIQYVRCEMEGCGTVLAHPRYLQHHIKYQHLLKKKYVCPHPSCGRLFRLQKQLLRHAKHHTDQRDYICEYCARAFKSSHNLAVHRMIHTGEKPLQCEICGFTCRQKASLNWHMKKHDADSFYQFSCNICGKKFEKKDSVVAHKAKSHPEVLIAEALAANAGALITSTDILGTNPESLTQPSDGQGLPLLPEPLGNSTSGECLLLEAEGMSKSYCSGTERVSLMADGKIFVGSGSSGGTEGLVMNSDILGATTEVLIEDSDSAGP
# Chain of ZFP91 (Q96SW2 whole entry): as the sequence (Q96SW2 whole entry) above
# Chain of ZFP91 (Q16531 whole entry partner): as the sequence (Q16531 whole entry partner) above
smiles,measurement,setting,value
"C=CCn1c(=O)c2cnc(Nc3ccc(N4CCN(C)CC4)cc3)nc2n1-c1cccc(C(C)(C)O)n1 [AZD1775, reference compound]","Wee1 degradation (immunoblot, in words)","Wee1 [1]; MOLT4 cells, 5 hr treatment",insufficient to induce Wee1 degradation
same,cell cycle changes,[2],neither ZNL-02-096 nor AZD1775 induced significant cell cycle changes
same,effect on cell cycle (G2/M proportion),MOLT4 cells [3],did not appreciably affect the cell cycle
same,dose needed to elicit the same cell cycle changes as 100 nM ZNL-02-096,MOLT4 cells [3],1 µM
same,effect on pCDK1 Y15,"[4]; MOLT4 cells, 1 μM pretreatment alone, independent of ZNL-02-096 co-treatment",decreased pCDK1 Y15
same,IC50,MOLT4 cells [5],800 nM
same,concentration necessary to produce the same downstream changes,[6]; 24 hr,1 µM
same,"downstream changes (pCDK1 Y15, PARP cleavage, γH2Ax)",[6]; 24 hr,did not produce these downstream changes
same,KINOMEscan engagement of PLK1,PLK1 [7],strong engagement
same,KINOMEscan engagement of Wee1,Wee1 [8],strong engagement
"C=CCn1c(=O)c2cnc(Nc3ccc(N4CCN(CCCNc5cccc6c5C(=O)N(C5CCC(=O)N(C)C5=O)C6=O)CC4)cc3)nc2n1-c1cccc(C(C)(C)O)n1 (stereo not shown) [ZNL-02-178, 4-((3-(4-(4-((2-allyl-1-(6-(2-hydroxypropan-2-yl)pyridin-2-yl)-3-oxo-2,3-dihydro-1H-pyrazolo[3,4-d]pyrimidin-6-yl)amino)phenyl)piperazin-1-yl)propyl)amino)-2-(1-methyl-2,6-dioxopiperidin-3-yl)is oindoline-1,3-dione]","Wee1 degradation (immunoblot, in words)","Wee1 [1]; MOLT4 cells, 5 hr treatment",inhibits but does not degrade Wee1
same,effect on Wee1 protein levels,"Wee1 [1]; MOLT4 cells, out to 48 hrs after treatment",no effect on Wee1 protein levels
same,effect on cell cycle (G2/M proportion),MOLT4 cells [3],did not appreciably affect the cell cycle
same,synergy with Olaparib,OVCAR8 cells,less synergistic activity with Olaparib than ZNL-02-096 at low doses
same,"downstream changes (pCDK1 Y15, PARP cleavage, γH2Ax)",[6]; 24 hr,did not produce these downstream changes
same,potency in PRISM relative to ZNL-02-096,[9],uniformly less potent
"C=CCn1c(=O)c2cnc(Nc3ccc(N4CCN(CCCNc5cccc6c5C(=O)N(C5CCC(=O)NC5=O)C6=O)CC4)cc3)nc2n1-c1cccc(C(C)(C)O)n1 (stereo not shown) [ZNL-02-096, 4-((3-(4-(4-((2-Allyl-1-(6-(2-hydroxypropan-2-yl)pyridin-2-yl)-3-oxo-2,3-dihydro-1H-pyrazolo[3,4-d]pyrimidin-6-yl)amino)phenyl)piperazin-1-yl)propyl)amino)-2-(2,6-dioxopiperidin-3-yl)isoindoline-1,3-dione]",IKZF1 degradation,Ikaros (IKZF1); [18],degradation of both IKZF1 and IKZF3 was apparent
same,IKZF1 degradation,Ikaros (IKZF1); short time points,no degradation of either IKZF1 or IKZF3
same,ZFP91 degradation,ZFP91,low levels of ZFP91 degradation
same,effect on Wee1 abundance,Wee1 [10],did not affect Wee1 abundance
same,time to complete Wee1 degradation,"Wee1 [1]; MOLT4 cells, 100 nM",≤ 3 h
same,Wee1 degradation,"Wee1 [1]; MOLT4 cells, 100 nM, within 30 min",over 50%
same,Wee1 degradation by ZNL-02-096 after MLN4924 pretreatment,Wee1 [1]; [19],prevented
same,Wee1 degradation by ZNL-02-096 after carfilzomib pretreatment,Wee1 [1]; [19],rescued
same,Wee1 degradation by ZNL-02-096 after pretreatment with excess AZD1775,Wee1 [1]; [19],prevented ZNL-02-096-induced Wee1 degradation
same,Wee1 degradation by ZNL-02-096 after pretreatment with excess pomalidomide,Wee1 [1]; [19],only partial rescue
same,"Wee1 degradation (immunoblot, in words)","Wee1 [1]; MOLT4 cells, 5 hr treatment",degradation was most pronounced
same,duration of sustained Wee1 loss,"Wee1 [1]; MOLT4 cells, single 100 nM treatment",at least 48 hrs
same,concentration of maximal Wee1 degradation,"Wee1 [1]; parental MOLT4 cells, 5 hrs",100 nM
same,concentration at which hook effect is apparent,"Wee1 [1]; parental MOLT4 cells, 5 hrs, top concentration",10 µM
same,G2/M phase accumulation,[11],induced G2/M phase accumulation at lower doses than either ZNL-02-178 or AZD1775
same,cell cycle changes,[2],neither ZNL-02-096 nor AZD1775 induced significant cell cycle changes
same,dose from which pCDK1 Y15 is decreased,[12],1 μM
same,G2/M accumulation,CRBN−/− MOLT4 cells,absent
same,IKZF3 degradation,Aiolos (IKZF3); [18],degradation of both IKZF1 and IKZF3 was apparent
same,IKZF3 degradation,Aiolos (IKZF3); short time points,no degradation of either IKZF1 or IKZF3
same,concentration of maximal Wee1 degradation,Wee1 [13],100 nM
same,engagement of recombinant Wee1,Wee1 [14],potently engaged recombinant Wee1
same,effect on cell cycle (G2/M proportion),MOLT4 cells [3],increased the proportion of MOLT4 cells in G2/M in a time-dependent manner
same,"shift in IC50, MOLT4 CRBN−/− versus parental cells",MOLT4 CRBN−/− cells,approximately 6 fold
same,dose from which pCDK1 Y15 is reduced,"[4]; parental MOLT4 cells, 5 hrs",100 nM
same,PLK1 downregulation,PLK1 [15],No downregulation of PLK1
same,IC50,MOLT4 cells [5],390 nM
same,synergy with Olaparib,OVCAR8 cells,synergized with Olaparib
same,fold lower dose than AZD1775 for the same downstream effects,[6],10 fold
same,"concentration producing reduced pCDK1 Y15, PARP cleavage and γH2Ax",[6]; 24 hr,100 nM
same,KINOMEscan engagement of PLK1,PLK1 [7],strong engagement
same,KINOMEscan engagement of Wee1,Wee1 [8],strong engagement
same,IC50,"[9]; read-out: IC50, PRISM",< 1000 nM
same,cell death,[16],induced potent cell death
same,cytotoxicity,[17],little cytotoxicity
"Nc1cccc2c1C(=O)N(C1CCC(=O)NC1=O)C2=O (stereo not shown) [pomalidomide, reference compound]","Wee1 degradation (immunoblot, in words)","Wee1 [1]; MOLT4 cells, 5 hr treatment",insufficient to induce Wee1 degradation
same,cytotoxicity,"MOLT4 cells [5]; alone, Fig. S3",no detectable cytotoxicity
same,synergy with Olaparib,OVCAR8 cells,not synergistic
same,synergy with AZD1775,OVCAR8 cells; co-treatment,not synergistic
same,"effect on pCDK1 Y15, apoptosis, DNA damage","[6]; 24 hr, 1 μM","did not affect phosphorylation of CDK1 Y15, apoptosis, or levels of DNA damage"
"C=CCn1c(=O)c2cnc(Nc3ccc(N4CCN(CCOCCOCCOCCNc5cccc6c5C(=O)N(C5CCC(=O)NC5=O)C6=O)CC4)cc3)nc2n1-c1cccc(C(C)(C)O)n1 (stereo not shown) [ZNL-02-047, 4-((2-(2-(2-(2-(4-(4-((2-Allyl-1-(6-(2-hydroxypropan-2-yl)pyridin-2-yl)-3-oxo-2,3-dihydro-1H-pyrazolo[3,4-d]pyrimidin-6-yl)amino)phenyl)piperazin-1-yl)ethoxy)ethoxy)ethoxy)ethyl)amino)-2-(2,6-dioxopiperidin-3-yl)isoindoline-1,3-dione]","Wee1 degradation (immunoblot, in words)","Wee1 [1]; MOLT4 cells, 5 hr treatment",induced Wee1 degradation
same,concentration sufficient to degrade Wee1,"Wee1 [1]; MOLT4 cells, 5 hr treatment",100 nM
same,IC50,Wee1 [14],1 to 10 nM
"C=CCn1c(=O)c2cnc(Nc3ccc(N4CCN(CCCNC(=O)CCOCCOCCNc5cccc6c5C(=O)N(C5CCC(=O)NC5=O)C6=O)CC4)cc3)nc2n1-c1cccc(C(C)(C)O)n1 (stereo not shown) [ZNL-02-012, N-(3-(4-(4-((2-allyl-1-(6-(2-hydroxypropan-2-yl)pyridin-2-yl)-3-oxo-2,3-dihydro-1H-pyrazolo[3,4-d]pyrimidin-6-yl)amino)phenyl)piperazin-1-yl)propyl)-3-(2-(2-((2-(2,6-dioxopiperidin-3-yl)-1,3-dioxoisoindolin-4-yl)amino)ethoxy)ethoxy)propenamide]","Wee1 degradation (immunoblot, in words)","Wee1 [1]; MOLT4 cells, 5 hr treatment",induced Wee1 degradation
same,concentration required to achieve maximal Wee1 degradation,"Wee1 [1]; MOLT4 cells, 5 hr treatment",1 µM
same,IC50,Wee1 [14],1 to 10 nM
"C=CCn1c(=O)c2cnc(Nc3ccc(N4CCN(CCCCCCNc5cccc6c5C(=O)N(C5CCC(=O)NC5=O)C6=O)CC4)cc3)nc2n1-c1cccc(C(C)(C)O)n1 (stereo not shown) [ZNL-02-040, 4-((6-(4-(4-((2-Allyl-1-(6-(2-hydroxypropan-2-yl)pyridin-2-yl)-3-oxo-2,3-dihydro-1H-pyrazolo[3,4-d]pyrimidin-6-yl)amino)phenyl)piperazin-1-yl)hexyl)amino)-2-(2,6-dioxopiperidin-3-yl)isoindoline-1,3-dione]","Wee1 degradation (immunoblot, in words)","Wee1 [1]; MOLT4 cells, 5 hr treatment",induced Wee1 degradation
same,engagement of recombinant Wee1,Wee1 [14],potently engaged recombinant Wee1
